Laboratory results published in US20110039721A1, “METHOD FOR PREDICTION ABOUT CARCINOGENICITY OF SUBSTANCE IN RODENT” (Chemicals Evaluation and Research Institute, priority 2007, published 2011).

Legend:
[1] = test system: mRNA expressed from the genes (A) to (D) in rat liver; assay: Behavior of genes (mRNA expression level, oligo-DNA microarray) in rat liver after 28-day oral administration; type: in vivo
Outline: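 Liver mRNA measured by oligo-DNA microarray after 28 days of once-daily oral gavage in 5-week-old male F344 rats (n=4 per group), with vehicle controls given equal solvent volume. Significance threshold: 1.5-fold up or down versus control, with changes opposite in direction to other carcinogens counted as not significant.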

liver = details: in vivo; cited from earlier work
rodent = details: in vivo; cited from earlier work
[2] = (C), Unigene Rn.120914, defined direction +, rat liver, oral once daily 28 days

CCOC(N)=O [TS054, Urethane]
Behavior of gene caused by administration of chemical substance, Gene No. 4846 ([1]; (A), Unigene Rn.144554, defined direction +, rat liver, oral once daily 28 days): + | Behavior of gene caused by administration of chemical substance, Gene No. 4218 ([1]; (A), Unigene Rn.167075, defined direction +, rat liver, oral once daily 28 days, significant = 1.5 times or more or 1/1.5 or less of control): − | Behavior of gene caused by administration of chemical substance, Gene No. 2026 ([1]; (A), Unigene Rn.167075, defined direction −, rat liver, oral once daily 28 days): − | Behavior of gene caused by administration of chemical substance, Gene No. 6182 ([1]; (A), Unigene Rn.5834, defined direction +, rat liver, oral once daily 28 days): + | Behavior of gene caused by administration of chemical substance, Gene No. 5600 ([1]; (A), Unigene Rn.9836, defined direction +, rat liver, oral once daily 28 days): − | Behavior of gene caused by administration of chemical substance, Gene No. 1494 ([1]; (B), Unigene Rn.1430, defined direction −, rat liver, oral once daily 28 days): − | Behavior of gene caused by administration of chemical substance, Gene No. 2045 ([1]; (B), Unigene Rn.19329, defined direction +, rat liver, oral once daily 28 days): − | Behavior of gene caused by administration of chemical substance, Gene No. 2203 ([1]; (B), Unigene Rn.21240, defined direction +, rat liver, oral once daily 28 days): − | Behavior of gene caused by administration of chemical substance, Gene No. 533 ([1]; (C), Unigene Rn.106184, defined direction +, rat liver, oral once daily 28 days): − | Behavior of gene caused by administration of chemical substance, Gene No. 725 ([1]; (C), Unigene Rn.108075, defined direction −, rat liver, oral once daily 28 days): − | Behavior of gene caused by administration of chemical substance, Gene No. 1163 ([1]; (C), Unigene Rn.11766, defined direction +, rat liver, oral once daily 28 days): − | Behavior of gene caused by administration of chemical substance, Gene No. 4973 ([1]; (C), Unigene Rn.118529, defined direction −, rat liver, oral once daily 28 days): − | Behavior of gene caused by administration of chemical substance, Gene No. 4095 ([1]; (C), Unigene Rn.119024, defined direction −, rat liver, oral once daily 28 days): − | Behavior of gene caused by administration of chemical substance, Gene No. 1334 [1, 2]: − | Behavior of gene caused by administration of chemical substance, Gene No. 6620 [1, 2]: − | Behavior of gene caused by administration of chemical substance, Gene No. 6303 ([1]; (C), Unigene Rn.123063, defined direction −, rat liver, oral once daily 28 days): − | Behavior of gene caused by administration of chemical substance, Gene No. 5878 ([1]; (C), Unigene Rn.143213, defined direction −, rat liver, oral once daily 28 days): − | Behavior of gene caused by administration of chemical substance, Gene No. 1131 ([1]; (C), Unigene Rn.144946, defined direction −, rat liver, oral once daily 28 days): − | Behavior of gene caused by administration of chemical substance, Gene No. 1562 ([1]; (C), Unigene Rn.14744, defined direction −, rat liver, oral once daily 28 days): − | Behavior of gene caused by administration of chemical substance, Gene No. 1741 ([1]; (C), Unigene Rn.1647, defined direction −, rat liver, oral once daily 28 days): − | Behavior of gene caused by administration of chemical substance, Gene No. 893 ([1]; (C), Unigene Rn.164817, defined direction +, rat liver, oral once daily 28 days): − | Behavior of gene caused by administration of chemical substance, Gene No. 6026 ([1]; (C), Unigene Rn.167685, defined direction −, rat liver, oral once daily 28 days): − | Behavior of gene caused by administration of chemical substance, Gene No. 154 ([1]; (C), Unigene Rn.185941, defined direction −, rat liver, oral once daily 28 days): − | Behavior of gene caused by administration of chemical substance, Gene No. 1993 ([1]; (C), Unigene Rn.18728, defined direction −, rat liver, oral once daily 28 days): − | Behavior of gene caused by administration of chemical substance, Gene No. 813 ([1]; (C), Unigene Rn.201760, defined direction +, rat liver, oral once daily 28 days): − | Behavior of gene caused by administration of chemical substance, Gene No. 2494 ([1]; (C), Unigene Rn.23969, defined direction +, rat liver, oral once daily 28 days): − | Behavior of gene caused by administration of chemical substance, Gene No. 2546 ([1]; (C), Unigene Rn.24561, defined direction −, rat liver, oral once daily 28 days): − | Behavior of gene caused by administration of chemical substance, Gene No. 3776 ([1]; (C), Unigene Rn.43232, defined direction −, rat liver, oral once daily 28 days): − | Behavior of gene caused by administration of chemical substance, Gene No. 3929 ([1]; (C), Unigene Rn.4620, defined direction +, rat liver, oral once daily 28 days): − | Behavior of gene caused by administration of chemical substance, Gene No. 1119 ([1]; (C), Unigene Rn.9757, defined direction +, rat liver, oral once daily 28 days): − | Behavior of gene caused by administration of chemical substance, Gene No. 6742 ([1]; (C), Unigene Rn.9779, defined direction +, rat liver, oral once daily 28 days): − | Behavior of gene caused by administration of chemical substance, Gene No. 5634 ([1]; (C), Unigene Rn.9862, defined direction −, rat liver, oral once daily 28 days): − | Behavior of gene caused by administration of chemical substance, Gene No. 5726 ([1]; (D), Unigene Rn.9939, defined direction −, rat liver, oral once daily 28 days): + | Liver carcinogenicity (liver): Cr+ | Carcinogenicity (rodent): C+

Cl[C@H]1[C@H](Cl)[C@@H](Cl)[C@@H](Cl)[C@H](Cl)[C@H]1Cl [TS057, Lindane]
Behavior of gene caused by administration of chemical substance, Gene No. 154 ([1]; rat, in vivo): − | Behavior of gene caused by administration of chemical substance, Gene No. 533 ([1]; rat, in vivo): + | Behavior of gene caused by administration of chemical substance, Gene No. 725 ([1]; rat, in vivo): − | Behavior of gene caused by administration of chemical substance, Gene No. 813 ([1]; rat, in vivo): − | Behavior of gene caused by administration of chemical substance, Gene No. 893 ([1]; rat, in vivo): − | Behavior of gene caused by administration of chemical substance, Gene No. 1119 ([1]; rat, in vivo): − | Behavior of gene caused by administration of chemical substance, Gene No. 1131 ([1]; rat, in vivo): + | Behavior of gene caused by administration of chemical substance, Gene No. 1163 ([1]; rat, in vivo): − | Behavior of gene caused by administration of chemical substance, Gene No. 1334 ([1]; rat, in vivo): − | Behavior of gene caused by administration of chemical substance, Gene No. 1494 ([1]; rat, in vivo): − | Behavior of gene caused by administration of chemical substance, Gene No. 1562 ([1]; rat, in vivo): − | Behavior of gene caused by administration of chemical substance, Gene No. 1741 ([1]; rat, in vivo): − | Behavior of gene caused by administration of chemical substance, Gene No. 1993 ([1]; rat, in vivo): − | Behavior of gene caused by administration of chemical substance, Gene No. 2026 ([1]; rat, in vivo): − | Behavior of gene caused by administration of chemical substance, Gene No. 2045 ([1]; rat, in vivo): − | Behavior of gene caused by administration of chemical substance, Gene No. 2203 ([1]; rat, in vivo): − | Behavior of gene caused by administration of chemical substance, Gene No. 2494 ([1]; rat, in vivo): − | Behavior of gene caused by administration of chemical substance, Gene No. 2546 ([1]; rat, in vivo): − | Behavior of gene caused by administration of chemical substance, Gene No. 3776 ([1]; rat, in vivo): − | Behavior of gene caused by administration of chemical substance, Gene No. 3929 ([1]; rat, in vivo): − | Behavior of gene caused by administration of chemical substance, Gene No. 4095 ([1]; rat, in vivo): − | Behavior of gene caused by administration of chemical substance, Gene No. 4218 ([1]; rat, in vivo): − | Behavior of gene caused by administration of chemical substance, Gene No. 4846 ([1]; rat, in vivo): − | Behavior of gene caused by administration of chemical substance, Gene No. 4973 ([1]; rat, in vivo): − | Behavior of gene caused by administration of chemical substance, Gene No. 5600 ([1]; rat, in vivo): − | Behavior of gene caused by administration of chemical substance, Gene No. 5634 ([1]; rat, in vivo): − | Behavior of gene caused by administration of chemical substance, Gene No. 5726 ([1]; rat, in vivo): − | Behavior of gene caused by administration of chemical substance, Gene No. 5878 ([1]; rat, in vivo): − | Behavior of gene caused by administration of chemical substance, Gene No. 6026 ([1]; rat, in vivo): + | Behavior of gene caused by administration of chemical substance, Gene No. 6182 ([1]; rat, in vivo): − | Behavior of gene caused by administration of chemical substance, Gene No. 6303 ([1]; rat, in vivo): + | Behavior of gene caused by administration of chemical substance, Gene No. 6620 ([1]; rat, in vivo): − | Behavior of gene caused by administration of chemical substance, Gene No. 6742 ([1]; rat, in vivo): − | Liver carcinogenicity (liver): Cr− | Carcinogenicity (rodent): C−
